Measurements published in ChEMBL document CHEMBL4354807, “Natural Product Albiziabioside A Conjugated with Pyruvate Dehydrogenase Kinase Inhibitor Dichloroacetate To Induce Apoptosis-Ferroptosis-M2-TAMs Polarization for Combined Cancer Therapy” (J Med Chem, 2019).
Activity calls are given as the source filed them. No cut-off for these calls is given here.

What was measured:
[1] = target: [Pyruvate dehydrogenase (acetyl-transferring)] kinase isozyme 1, mitochondrial (Homo sapiens) (UniProt Q15118); test: Inhibition of PDK1 (unknown origin) expressed in human MCF7 cells using PDK tide as substrate measured after 90 mins in presence of ATP by ADP-Glo luminescent kinase assay
MCF7 [2] = test: Downregulation of PDK expression in human MCF7 cells after 48 hrs by Western blot analysis; type: functional, cell-based
HCT-116 = test: Anticancer activity against human HCT116 cells expressing PDK assessed as reduction in cell viability after 72 hrs by MTT assay; type: functional, cell-based; settings: HCT-116, 72 h
MCF7 [3] = test: Induction of ROS generation in human MCF7 cells assessed as ROS level at 2 uM after 24 hrs by DCFDA-fluorescence based flow cytometry (reference value: 6.57 %); type: functional
MCF7 [4] = test: Cytotoxicity against human MCF7 cells assessed as cell death at 2 uM pretreated with Z-VAD-fmk followed by compound addition by MTT assay; type: functional, cell-based
[5] = Cytotoxicity against human HBMEC cells assessed as reduction in cell viability after 72 hrs by MTT assay; type: cell-based
[6] = Selectivity index, ratio IC50 for cytotoxicity against human HBMEC cells assessed as reduction in cell viability after 72 hrs by MTT assay to IC50 for anticancer activity against human HCT116 cells assessed as reduction in cell viability after 72 hrs by MTT assay
L02 = test: Cytotoxicity against human LO2 cells assessed as combination index after 72 hrs by MTT assay; type: cell-based; settings: l02, 72 h
MCF7 [7] = test: Antitumor activity against human MCF7 cells xenografted in BALB/c nude mouse assessed as suppression of tumor progression at 2 mg/kg, iv administered every two days for two weeks measured after 14 days relative to control; type: functional
[8] = Toxicity in BALB/c nude mouse xenografted with human MCF7 cells assessed as effect on ALT level in blood at 2 mg/kg, iv administered every 2 days for 2 weeks measured after 14 days; type: organism-based; settings: in vivo, 336 h
Mus musculus = test: Modulation of tumor immunosuppressive activity in BALB/c mouse xenografted with mouse 4T1 cells assessed as increase in IL12 expression in tumor administered intratumorally every other day for 14 days measured at 2 days post-last dose by ELISA; type: functional, organism-based
MCF7 [9] = test: Induction of metabolic reversal from aerobic glycolysis to oxidative phosphorylation in human MCF7 cells assessed as […] at 2 uM pretreated for 3 hrs followed by oligomycin A addition after 25 mins followed by subsequent addition of FCCP after 50 mins followed by antimycin/rotenone addition after 80 mins by seahorse XF24 extracellular flux analyzer assay; type: functional, cell-based

Which results are given for `CC1(C)CC[C@]2(C(=O)O)CC[C@]3(C)C(=CC[C@@H]4[C@@]5(C)CC[C@H](O[C@@H]6O[C@H](CO[C@@H]7OC[C@H](O)[C@H](O)[C@H]7O)[C@@H](O)[C@H](O)[C@H]6NC(=O)C(Cl)Cl)C(C)(C)[C@@H]5CC[C@]43C)[C@@H]2C1`?
inhibition [1]: Active; Activity (MCF7 [2]): Dose-dependent effect; IC50 (HCT-116): 3.87 µM; Activity (MCF7 [3]): 44.19%; Activity (MCF7 [4]): inactive; IC50 [5]: 38.2 µM; Ratio IC50 [6]: 9.87; CI (L02): 2.13; Activity (MCF7 [7]): 100%; Activity [8]: Non-Toxic; Activity (Mus musculus): Active; Activity (MCF7 [9]): inactive
